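Compound exposure: 48 hours, 5 concentrations, 96-well plates. TGI denotes the concentration required for complete inhibition of growth.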
Experiments:
Test in all cases: inhibition of tumour cell growth, NCI panel, 48 h
SK-MEL-2 melanoma = tested on: SK-MEL-2 melanoma
HCT-116 colon = tested on: HCT-116 colon
SW-620 colon = tested on: SW-620 colon
NCI-H460 lung = tested on: NCI-H460 lung
SF-539 CNS = tested on: SF-539 CNS
HCT-15 colon = tested on: HCT-15 colon
U251 CNS = tested on: U251 CNS
HCC-2998 colon = tested on: HCC-2998 colon
TK-10 renal = tested on: TK-10 renal
EKVX NSCLC = tested on: EKVX NSCLC
HOP-18 NSCLC = tested on: HOP-18 NSCLC
OVCAR-5 ovarian = tested on: OVCAR-5 ovarian
A498 renal = tested on: A498 renal
DMS 273 small cell lung = tested on: DMS 273 small cell lung
M19-MEL melanoma = tested on: M19-MEL melanoma
SN12C renal = tested on: SN12C renal
HL-60(TB) leukemia = tested on: HL-60(TB) leukemia
DLD-1 colon = tested on: DLD-1 colon
DMS 114 small cell lung = tested on: DMS 114 small cell lung
IGROV1 ovarian = tested on: IGROV1 ovarian
SK-OV-3 ovarian = tested on: SK-OV-3 ovarian
MOLT-4 leukemia = tested on: MOLT-4 leukemia
SNB-75 CNS = tested on: SNB-75 CNS
SK-MEL-28 melanoma = tested on: SK-MEL-28 melanoma
A549 NSCLC = tested on: A549 NSCLC
SK-MEL-5 melanoma = tested on: SK-MEL-5 melanoma
UACC-62 melanoma = tested on: UACC-62 melanoma
RXF 393 renal = tested on: RXF 393 renal
SF-295 CNS = tested on: SF-295 CNS
K-562 leukemia = tested on: K-562 leukemia
CCRF-CEM leukemia = tested on: CCRF-CEM leukemia
NCI-H226 lung = tested on: NCI-H226 lung
786-0 renal = tested on: 786-0 renal
OVCAR-4 ovarian = tested on: OVCAR-4 ovarian
SF-268 CNS = tested on: SF-268 CNS
HT29 colon = tested on: HT29 colon
HOP-92 NSCLC = tested on: HOP-92 NSCLC
RPMI-8226 leukemia = tested on: RPMI-8226 leukemia
COLO 205 colon = tested on: COLO 205 colon
LXFL 529 NSCLC = tested on: LXFL 529 NSCLC
LOX IMVI melanoma = tested on: LOX IMVI melanoma
MALME-3M melanoma = tested on: MALME-3M melanoma
RXF-631 renal = tested on: RXF-631 renal
NCI-H522 lung = tested on: NCI-H522 lung
UO-31 renal = tested on: UO-31 renal
M14 melanoma = tested on: M14 melanoma
OVCAR-3 ovarian = tested on: OVCAR-3 ovarian
SNB-19 CNS = tested on: SNB-19 CNS
CAKI-1 renal = tested on: CAKI-1 renal
KM12 colon = tested on: KM12 colon
ACHN renal = tested on: ACHN renal
UACC-257 melanoma = tested on: UACC-257 melanoma
KM20L2 colon = tested on: KM20L2 colon
XF 498 CNS = tested on: XF 498 CNS
SR leukemia = tested on: SR leukemia
OVCAR-8 ovarian = tested on: OVCAR-8 ovarian
SNB-78 CNS = tested on: SNB-78 CNS
NCI-H23 lung = tested on: NCI-H23 lung

Cn1cccc1/C=C/c1cc(Br)c(/C=C/c2cccn2C)cc1Br
TGI (SK-MEL-2 melanoma): 37.2 µM | TGI (HCT-116 colon): 43.4 µM | TGI (SW-620 colon): 56.3 µM | TGI (NCI-H460 lung): 45.9 µM | TGI (SF-539 CNS): 31.5 µM | TGI (HCT-15 colon): 24.6 µM | TGI (U251 CNS): 28.6 µM | TGI (HCC-2998 colon): 16.6 µM | TGI (TK-10 renal): 45.3 µM | TGI (EKVX NSCLC): 37.2 µM | TGI (HOP-18 NSCLC): 28 µM | TGI (OVCAR-5 ovarian): > 100 µM | TGI (A498 renal): 45.1 µM | TGI (DMS 273 small cell lung): 38.3 µM | TGI (M19-MEL melanoma): 53.7 µM | TGI (SN12C renal): 72.4 µM | TGI (HL-60(TB) leukemia): 32.4 µM | TGI (DLD-1 colon): 4.97 µM | TGI (DMS 114 small cell lung): 35.2 µM | TGI (IGROV1 ovarian): 53.2 µM | TGI (SK-OV-3 ovarian): 30.3 µM | TGI (MOLT-4 leukemia): 43.2 µM | TGI (SNB-75 CNS): 16.5 µM | TGI (SK-MEL-28 melanoma): 31.5 µM | TGI (A549 NSCLC): 39.1 µM | TGI (SK-MEL-5 melanoma): 32 µM | TGI (UACC-62 melanoma): 43.1 µM | TGI (RXF 393 renal): 25.1 µM | TGI (SF-295 CNS): 52.8 µM | TGI (K-562 leukemia): 43.9 µM | TGI (CCRF-CEM leukemia): 62.2 µM | TGI (NCI-H226 lung): 39.5 µM | TGI (786-0 renal): 20.2 µM | TGI (OVCAR-4 ovarian): 20.2 µM | TGI (SF-268 CNS): 91.9 µM | TGI (HT29 colon): 41.5 µM | TGI (HOP-92 NSCLC): 39.5 µM | TGI (RPMI-8226 leukemia): 41.3 µM | TGI (COLO 205 colon): 55 µM | TGI (LXFL 529 NSCLC): 25 µM | TGI (LOX IMVI melanoma): 56.4 µM | TGI (MALME-3M melanoma): 31.2 µM | TGI (RXF-631 renal): 49.4 µM | TGI (NCI-H522 lung): 28.3 µM | TGI (UO-31 renal): 48 µM | TGI (M14 melanoma): 57.9 µM | TGI (OVCAR-3 ovarian): 33.6 µM | TGI (SNB-19 CNS): 92.8 µM | TGI (CAKI-1 renal): 39.7 µM | TGI (KM12 colon): 21.7 µM | TGI (ACHN renal): 26.1 µM | TGI (UACC-257 melanoma): > 100 µM | TGI (KM20L2 colon): 58.4 µM

CCc1cccc(C)c1NC(=O)CC1C(=O)Nc2ccccc2S1(=O)=O (configuration not stated)
TGI (SK-MEL-2 melanoma): 53.5 µM | TGI (HCT-116 colon): 35.4 µM | TGI (SW-620 colon): 29.3 µM | TGI (NCI-H460 lung): 27.9 µM | TGI (SF-539 CNS): 24.6 µM | TGI (HCT-15 colon): 33.8 µM | TGI (U251 CNS): 32.5 µM | TGI (HCC-2998 colon): 30.4 µM | TGI (TK-10 renal): 59.4 µM | TGI (EKVX NSCLC): 41.9 µM | TGI (OVCAR-5 ovarian): 56.4 µM | TGI (XF 498 CNS): 26.2 µM | TGI (A498 renal): 58.3 µM | TGI (DMS 273 small cell lung): 25 µM | TGI (M19-MEL melanoma): 38.9 µM | TGI (SN12C renal): 63.6 µM | TGI (HL-60(TB) leukemia): 40.2 µM | TGI (DLD-1 colon): 40.4 µM | TGI (DMS 114 small cell lung): 34.1 µM | TGI (IGROV1 ovarian): 35.2 µM | TGI (MOLT-4 leukemia): 36 µM | TGI (SNB-75 CNS): 31.2 µM | TGI (SK-MEL-28 melanoma): 48.1 µM | TGI (A549 NSCLC): 35.2 µM | TGI (SK-MEL-5 melanoma): 44.4 µM | TGI (UACC-62 melanoma): 41.1 µM | TGI (RXF 393 renal): 40.4 µM | TGI (SF-295 CNS): 82.1 µM | TGI (K-562 leukemia): 14.7 µM | TGI (CCRF-CEM leukemia): 41.6 µM | TGI (NCI-H226 lung): > 100 µM | TGI (786-0 renal): 31.5 µM | TGI (OVCAR-4 ovarian): 29.6 µM | TGI (SF-268 CNS): 39.4 µM | TGI (HT29 colon): 36.4 µM | TGI (HOP-92 NSCLC): 31.8 µM | TGI (RPMI-8226 leukemia): 40.4 µM | TGI (LXFL 529 NSCLC): 37 µM | TGI (SR leukemia): 23.8 µM | TGI (LOX IMVI melanoma): 27.3 µM | TGI (MALME-3M melanoma): 33 µM | TGI (RXF-631 renal): 33 µM | TGI (NCI-H522 lung): 32.5 µM | TGI (UO-31 renal): 27.7 µM | TGI (M14 melanoma): 72.1 µM | TGI (OVCAR-8 ovarian): 54.1 µM | TGI (SNB-78 CNS): 53.7 µM | TGI (NCI-H23 lung): 41.1 µM | TGI (OVCAR-3 ovarian): 33.5 µM | TGI (SNB-19 CNS): 75.5 µM | TGI (CAKI-1 renal): 31.2 µM | TGI (ACHN renal): 47.4 µM | TGI (UACC-257 melanoma): 82.7 µM | TGI (KM20L2 colon): 34.2 µM
